We go through three compounds from ChEMBL document CHEMBL3044795, “Synthesis and biological evaluation of novel benzoquinones as potential antimicrobial agents” (2013).

What all share (assay type): functional
Assay [1] has as its system Bacillus subtilis. Briefly: Antibacterial activity against Bacillus subtilis ATCC 6633 assessed as diamater of growth inhibition zone after 24 hr by agar cup diffusion method.
The subject of assay [2] is Escherichia coli. Briefly: Antibacterial activity against Escherichia coli ATCC 11775 assessed as diamater of growth inhibition zone after 24 hr by agar cup diffusion method.
For assay [3], the system named is Pseudomonas aeruginosa. Briefly: Antibacterial activity against Pseudomonas aeruginosa ATCC 10145 assessed as diamater of growth inhibition zone after 24 hr by agar cup diffusion method.
In assay [4] the test system is Candida albicans. Description: Antifungal activity against Candida albicans DSM 70014 assessed as diamater of growth inhibition zone after 48 hr by agar cup diffusion method.
Assay [5] has as its system Staphylococcus aureus. Briefly: Antibacterial activity against Staphylococcus aureus DSM 1104 assessed as growth inhibition after 24 hr by two fold serial dilution method. Particulars: DSM 1104, 24 h.
The subject of assay [6] is Bacillus subtilis. Description: Antibacterial activity against Bacillus subtilis ATCC 6633 assessed as growth inhibition after 24 hr by two fold serial dilution method. Particulars: ATCC 6633, 24 h.
Assay [7] has as its system Escherichia coli. Briefly: Antibacterial activity against Escherichia coli ATCC 11775 assessed as growth inhibition after 24 hr by two-fold serial dilution method. Particulars: ATCC 11775, 24 h.
Assay [8] concerns Pseudomonas aeruginosa. Briefly: Antibacterial activity against Pseudomonas aeruginosa ATCC 10145 assessed as growth inhibition after 24 hr by two-fold serial dilution method. Particulars: ATCC 10145, 24 h.
Assay [9] deals with Escherichia coli. Description: Ratio of compound MIC to Ampicillin MIC for Escherichia coli ATCC 11775.
Assay [10] deals with Pseudomonas aeruginosa. Description: Ratio of Ampicillin MIC to compound MIC for Pseudomonas aeruginosa ATCC 10145.
Assay [11] deals with Pseudomonas aeruginosa. Briefly: Antibacterial activity against Pseudomonas aeruginosa ATCC 10145 assessed as growth inhibition after 24 hr. Particulars: ATCC 10145, 24 h.
Assay [12] deals with Candida albicans. Briefly: Antifungal activity against Candida albicans DSM 70014 assessed as growth inhibition after 48 hr. Particulars: DSM 70014, 48 h.
The subject of assay [13] is Escherichia coli. Briefly: Antibacterial activity against Escherichia coli ATCC 11775 assessed as growth inhibition after 24 hr. Particulars: ATCC 11775, 24 h.
The subject of assay [14] is Bacillus subtilis. Description: Antibacterial activity against Bacillus subtilis ATCC 6633 assessed as growth inhibition after 24 hr. Particulars: ATCC 6633, 24 h.
Assay [15] relates to Staphylococcus aureus. Description: Antibacterial activity against Staphylococcus aureus DSM 1104 assessed as growth inhibition after 24 hr. Particulars: DSM 1104, 24 h.
Assay [16] concerns Candida albicans. Briefly: Antifungal activity against Candida albicans DSM 70014 assessed as growth inhibition after 48 hr by two-fold serial dilution method. Particulars: DSM 70014, 48 h.
Assay [17] has as its system Staphylococcus aureus. Description: Antibacterial activity against Staphylococcus aureus DSM 1104 assessed as diamater of growth inhibition zone after 24 hr by agar cup diffusion method.

Values after ≈ are worked out from the molar mass of the structure shown.

What is called MIC is the lowest concentration that inhibits growth of the organism. For orientation: MBC means the lowest tested concentration that kills the bacteria rather than only halting them. As usually defined, the MFC is the lowest tested concentration that kills the fungus rather than only halting it.

`COc1ccc(/C=N/N=c2\scc(C3=CC(=O)C=CC3=O)n2-c2ccc(C)cc2)cc1`: the “diameter of the inhibition zone (DIZ)” value with Bacillus subtilis [1] worked out at 14 mm; in the assay with Escherichia coli [2], 16 mm; in the assay with Pseudomonas aeruginosa [3], 15 mm; with Candida albicans [4] it was 14 mm; in the assay on Staphylococcus aureus [17], 16 mm. In addition, the MIC with Staphylococcus aureus [5] worked out at 50 µg/mL (≈ 116 µM); in the assay on Bacillus subtilis [6] it was 50 µg/mL (≈ 116 µM); in the assay with Escherichia coli [7] it was 25 µg/mL (≈ 58.2 µM); in the assay with Pseudomonas aeruginosa [8] it was 12.5 µg/mL (≈ 29.1 µM); in the assay on Candida albicans [16], 50 µg/mL (≈ 116 µM). Further, the Ratio is recorded as 2 with Escherichia coli [9] and 4 with Pseudomonas aeruginosa [10]. The minimum bactericidal concentration (MBC) in the assay with Pseudomonas aeruginosa [11] was determined as 25 µg/mL (≈ 58.2 µM); in the assay with Escherichia coli [13] it was 50 µg/mL (≈ 116 µM); in the assay on Bacillus subtilis [14] it was 50 µg/mL (≈ 116 µM); in the assay on Staphylococcus aureus [15], 50 µg/mL (≈ 116 µM). In addition, the MFC in the assay with Candida albicans [12] was 50 µg/mL (≈ 116 µM).

As for `COc1ccc(/C=N/N=c2\scc(-c3cc(O)ccc3O)n2-c2ccccc2)cc1O`, the “diameter of the inhibition zone (DIZ)” value in the assay with Bacillus subtilis [1] was determined as 15 mm; with Escherichia coli [2], 24 mm; with Pseudomonas aeruginosa [3] it was 12 mm; in the assay on Candida albicans [4], 14 mm; in the assay on Staphylococcus aureus [17], 16 mm. Further, the MIC was 100 µg/mL (≈ 231 µM) in the assay on Staphylococcus aureus [5]; 12.5 µg/mL (≈ 28.8 µM) in the assay with Bacillus subtilis [6]; 50 µg/mL (≈ 115 µM) with Escherichia coli [7]; 12.5 µg/mL (≈ 28.8 µM) with Pseudomonas aeruginosa [8]; 100 µg/mL (≈ 231 µM) in the assay with Candida albicans [16]. Further, the Ratio with Pseudomonas aeruginosa [10] was determined as 4. Further, the minimum bactericidal concentration (MBC) in the assay on Pseudomonas aeruginosa [11] was 25 µg/mL (≈ 57.7 µM); in the assay on Escherichia coli [13] it was 50 µg/mL (≈ 115 µM); in the assay with Bacillus subtilis [14], 25 µg/mL (≈ 57.7 µM); in the assay on Staphylococcus aureus [15] it was 100 µg/mL (≈ 231 µM). Moreover, the minimum fungicidal concentration (MFC) with Candida albicans [12] stood at 100 µg/mL (≈ 231 µM).

On to `COc1ccc(OC)c(/C=N/N=c2\scc(-c3cc(O)ccc3O)n2-c2ccc(C)cc2)c1`, for which the “diameter of the inhibition zone (DIZ)” value amounted to 17 mm with Bacillus subtilis [1]; 17 mm with Escherichia coli [2]; 14 mm in the assay with Pseudomonas aeruginosa [3]; 14 mm in the assay with Candida albicans [4]; 14 mm with Staphylococcus aureus [17]. Further, the minimal inhibitory concentration (MIC) in the assay with Staphylococcus aureus [5] is 12.5 µg/mL (≈ 27.1 µM); in the assay on Bacillus subtilis [6] it was 12.5 µg/mL (≈ 27.1 µM); in the assay with Escherichia coli [7], 25 µg/mL (≈ 54.2 µM); in the assay on Pseudomonas aeruginosa [8], 25 µg/mL (≈ 54.2 µM); in the assay with Candida albicans [16], 50 µg/mL (≈ 108 µM). Further, the Ratio in the assay with Pseudomonas aeruginosa [10] is 2. For the same compound, the MBC turned out to be 50 µg/mL (≈ 108 µM) in the assay with Pseudomonas aeruginosa [11], 50 µg/mL (≈ 108 µM) in the assay on Escherichia coli [13], 25 µg/mL (≈ 54.2 µM) in the assay with Bacillus subtilis [14] and 25 µg/mL (≈ 54.2 µM) in the assay with Staphylococcus aureus [15]. Besides, the MFC in the assay with Candida albicans [12] was determined as 50 µg/mL (≈ 108 µM).
